The term IC50 denotes the concentration needed to halve the response being measured. The inhibition is the relative decrease from the control value, in per cent. What is called melting point is the temperature of the solid-liquid transition.

Series [1] concerns the target T1, human leucocyte elastase (Homo sapiens, UniProt P08246).
T1 construct: purchased Elastin Products
T1 sequence (P08246 30-267): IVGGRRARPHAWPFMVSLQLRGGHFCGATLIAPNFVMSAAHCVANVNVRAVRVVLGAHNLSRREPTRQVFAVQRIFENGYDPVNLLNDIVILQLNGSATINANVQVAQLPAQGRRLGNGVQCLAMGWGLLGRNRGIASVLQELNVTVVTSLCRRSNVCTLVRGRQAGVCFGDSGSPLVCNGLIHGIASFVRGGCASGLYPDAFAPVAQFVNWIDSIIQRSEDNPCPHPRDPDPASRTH
As to the kind of experiment: Human leucocyte elastase (HLE) inhibition, MeO-Suc-Ala-Ala-Pro-Val-pNA substrate. It is filed as biochemical. The procedure: Stock solutions were mixed to yield a reaction mixture consisting of 0.5 mM MeO-Suc-Ala-Ala-Pro-Val-pNA (Sigma) and […] human leucocyte elastase (Elastin Products) in 0.1 M Tris, 0.5 M NaCl and 3% DMSO (v/v) at a pH of 7.5. Test compounds were solubilized in DMSO. Equal volumes of enzyme and inhibitor were mixed and allowed to incubate for 15 minutes at room temperature. The reaction was started by the addition of a third equal volume containing substrate. Reactions were carried out in microliter plates.

The target of series [2] is urokinase (Homo sapiens, UniProt P00749). Put plainly: urokinase assay. It is filed as biochemical. The settings on record: for inhibition at 22 µM: measured at 22 μM. The source says:
(§1) Thus, PTs appear to bind non-covalently to hydrophobic domains of enzymes and either block an access to the enzyme active site or cause conformational change, both resulting in the enzyme's inability to perform its function.

The target of series [3] is plasmin (Homo sapiens, UniProt P00747). Put plainly: plasmin assay. As to conditions: for inhibition at 22 µM: measured at 22 μM. It is filed as biochemical.
Excerpt: as §1

The subject of series [4] is mites. As to conditions: cited from earlier work.
Series [5] concerns the target T2, trypsin (Bos taurus, UniProt P00760).
T2 construct: gene PRSS1
T2 sequence (P00760 24-246): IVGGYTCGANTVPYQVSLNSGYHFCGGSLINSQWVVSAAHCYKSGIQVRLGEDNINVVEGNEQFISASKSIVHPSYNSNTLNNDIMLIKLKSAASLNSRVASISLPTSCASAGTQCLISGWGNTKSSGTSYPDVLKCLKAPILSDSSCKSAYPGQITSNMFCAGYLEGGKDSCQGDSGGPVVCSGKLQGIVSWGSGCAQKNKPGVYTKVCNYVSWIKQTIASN
As to the kind of experiment: trypsin assay. It is filed as biochemical.
Excerpt: as §1

The target in series [6] is thrombin (Homo sapiens, UniProt P00734). As to the kind of experiment: thrombin assay. It is filed as biochemical.
Excerpt: as §1

[7] abbreviates: 0.1 M Tris, 0.5 M NaCl, 3% DMSO, pH 7.5, 15 min preincubation at room temperature, read-out: IC50.

Where two headings read alike, the source gives them in different places.

Sequence of plasmin (P00747 581-810 limits assumed, species assumed): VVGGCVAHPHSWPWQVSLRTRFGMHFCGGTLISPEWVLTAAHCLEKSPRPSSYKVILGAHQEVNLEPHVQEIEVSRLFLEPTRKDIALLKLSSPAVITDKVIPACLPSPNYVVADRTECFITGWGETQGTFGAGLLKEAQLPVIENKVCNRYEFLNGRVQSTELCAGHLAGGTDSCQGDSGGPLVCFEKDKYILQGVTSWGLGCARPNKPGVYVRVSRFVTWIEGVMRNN
Sequence of plasmin (P00747 97-580 partner limits assumed, species assumed): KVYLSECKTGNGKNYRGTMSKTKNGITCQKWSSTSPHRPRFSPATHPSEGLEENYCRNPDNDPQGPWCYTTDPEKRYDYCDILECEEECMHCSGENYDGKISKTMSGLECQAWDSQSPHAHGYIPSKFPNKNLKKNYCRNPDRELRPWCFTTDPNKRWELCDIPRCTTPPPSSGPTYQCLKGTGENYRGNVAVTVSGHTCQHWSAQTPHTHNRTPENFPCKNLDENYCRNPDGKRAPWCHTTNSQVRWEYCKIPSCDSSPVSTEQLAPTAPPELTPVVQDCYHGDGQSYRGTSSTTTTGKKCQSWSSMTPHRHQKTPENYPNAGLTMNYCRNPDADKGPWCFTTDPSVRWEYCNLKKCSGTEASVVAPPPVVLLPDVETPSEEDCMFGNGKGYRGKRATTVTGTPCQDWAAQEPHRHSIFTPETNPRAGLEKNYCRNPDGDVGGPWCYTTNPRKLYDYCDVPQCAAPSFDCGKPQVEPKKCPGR

As for `C=C(C)[C@@H]1CC[C@]2(COC(=O)CCC(=O)O)CC[C@]3(C)[C@H](CC[C@@H]4[C@@]5(C)CC[C@H](O)C(C)(C)[C@@H]5CC[C@]43C)[C@@H]12` [Example 8, 28-Succinylbetulin], in series [1] (setting [7]), the IC50 stood at 6.3 µM.
As to `COC(=O)[C@]12CCC(C)(C)C[C@H]1C1=CC[C@@H]3[C@@]4(C)CC[C@H](O)C(C)(C)[C@@H]4CC[C@@]3(C)[C@]1(C)CC2` [Example 21, Oleanolic acid, Me ester], the IC50 in series [1] (setting [7]) came to 8.5 µM.
Compound `C=C(C)C1CCC2(C(=O)O)CCC3(C)C(CCC4C5(C)CCC(OC(C)=O)C(C)(C)C5CCC43C)C12` (stereo not shown) [Example 11, Acetylbetulinic acid] came in with an IC50 in series [1] of 7 µM.
With `C=C(C)C1CCC2(C(=O)OC)CCC3(C)C(CCC4C5(C)CCC(OS(C)(=O)=O)C(C)(C)C5CCC43C)C12` (stereo not shown) [Example 14, Methyl ester of 3-methanesulfonylbetulinic acid], in series [1] (setting [7]), the IC50 is 7.3 µM.
Regarding Lupeol acetate [Example 6], in series [1] (setting [7]), the IC50 was 14.9 µM.
`C=C(C)[C@@H]1CC[C@]2(CO)CC[C@]3(C)[C@H](CC[C@@H]4[C@@]5(C)CC[C@H](O)C(C)(C)[C@@H]5CC[C@]43C)[C@@H]12` [Example 7, Betulin] returned an IC50 in series [1] of 5 µM.
Consider `C=C(C)[C@@H]1CC[C@]2(C(=O)OC)CC[C@]3(C)[C@H](CC[C@@H]4[C@@]5(C)CC[C@H](O)C(C)(C)[C@@H]5CC[C@]43C)[C@@H]12` [Example 10, Methyl ester of betulinic acid], for which, in series [1] (setting [7]), the IC50 stood at 5.7 µM.
Consider `CC1(C)CC[C@]2(C(=O)O)[C@H](O)C[C@]3(C)C(=CC[C@@H]4[C@@]5(C)CC[C@H](O)[C@@](C)(CO)[C@@H]5CC[C@]43C)[C@@H]2C1` [Example 24, Caulophyllogenin], for which, in series [1] (@ 21°), the “inhibition of HLE at a single concentration” value is recorded as 0% @ 21°.
Consider `C[C@H]1[C@H](C)CC[C@]2(C(=O)O)CC[C@]3(C)C(=CC[C@@H]4[C@@]5(C)CC[C@H](O)C(C)(C)[C@@H]5CC[C@]43C)[C@H]12` [Example 17, Ursolic acid], for which the inhibition at 22 µM was determined as 83% in series [2] and 43% in series [3]. Further, it took 7.7 µM to reach half-maximal inhibition in series [1] (IC50). The “effects towards the mites and their survival” value in series [4] is “toxicity and feeding deterrent effects”. The “reduction of ingestion time on diet containing ursolic acid” value in series [4] (diet containing ursolic acid) was “about 30%”.
Turning to `C=C(C)[C@@H]1CC[C@]2(C)CC[C@]3(C)[C@H](CC[C@@H]4[C@@]5(C)CC[C@H](O)C(C)(C)[C@@H]5CC[C@]43C)[C@@H]12` [Example 5, Lupeol], the IC50 in series [1] is 8.4 µM.
Take `C=C(C)[C@@H]1CC[C@]2(C(=O)O)CC[C@]3(C)[C@H](CC[C@@H]4[C@@]5(C)CCC(=O)C(C)(C)[C@@H]5CC[C@]43C)[C@@H]12` [Example 12, 3-Ketobetulinic acid]: in series [1] (setting [7]), the IC50 turned out to be 11 µM.
On to `COC(=O)[C@]12CC[C@@H](C)[C@H](C)[C@H]1C1=CC[C@@H]3[C@@]4(C)CC[C@H](O)C(C)(C)[C@@H]4CC[C@@]3(C)[C@]1(C)CC2` [Example 18, Ursolic acid, Me ester], for which, in series [1] (setting [7]), the IC50 came to 4.9 µM.
Consider `CC1(C)CC[C@]2(C(=O)O)CC[C@]3(C)C(=CC[C@@H]4[C@@]5(C)CC[C@H](O)[C@@](C)(CO)[C@@H]5CC[C@]43C)[C@@H]2C1` [Example 23, Hederagenin], for which the IC50 in series [1] was 16.8 µM.
Consider `C=C(C)[C@@H]1CC[C@]2(C(=O)O)CC[C@]3(C)[C@H](CC[C@@H]4[C@@]5(C)CC[C@H](O)C(C)(C)[C@@H]5CC[C@]43C)[C@@H]12` [Example 9, Betulinic acid], for which the IC50 in series [2] was determined as 5 µM; in series [1] (setting [7]), 3.3 µM; in series [3] it was 6.2 µM; in series [5], 8.5 µM; in series [6], 2.3 µM.
In turn, `C=C(C)C1CCC2(C(=O)O)CCC3(C)C(CCC4C5(C)CCC(OS(C)(=O)=O)C(C)(C)C5CCC43C)C12` (stereo not shown) [Example 13, Methanesulfonylbetulinic acid] displayed a melting point of 210 to 212 °C. The compound also registered a half-maximal inhibitory concentration (IC50) in series [1] of 11.2 µM.
On to `CC1(C)CC[C@]2(C(=O)O)CC[C@]3(C)C(=CC[C@@H]4[C@@]5(C)CC[C@H](O)C(C)(C)[C@@H]5CC[C@]43C)[C@@H]2C1` [Example 20, Oleanolic acid], for which the results for the inhibition at 22 µM in series [2] and in series [3] were 40% and 25%, respectively.
On to `C[C@H]1[C@H](C)CC[C@]2(CO)CC[C@]3(C)C(=CC[C@@H]4[C@@]5(C)CC[C@H](O)C(C)(C)[C@@H]5CC[C@]43C)[C@H]12` [Example 16, Uvaol], for which, in series [1], half-maximal inhibition (IC50) was put at 4.5 µM.
With `CC1(C)CC[C@]2(C)CC[C@]3(C)C(=CC[C@@H]4[C@@]5(C)CC[C@H](O)C(C)(C)[C@@H]5CC[C@]43C)[C@@H]2C1` [Example 15, β-Amyrin], in series [1] (setting [7]), the IC50 was 5.4 µM.

Values taken from US6458834B2, “Pentacyclic triterpenes” (Micro Flo Company, priority 1998, dated 2002).
